Like-named read-outs stand apart in the source and are kept apart here.

What all share (type): cell-based
For experiment [1], the system named is NCI-N87 human gastric cancer cells. Description: Inhibitory effects of compounds on NCI-N87 cell proliferation (Cell Counting-Lite 2.0, 72 h). The following applies: NCI-N87, 72 h. As for the experimental part: (1) Cell plating: First, tumor cells NCI-N87 were cultured in the corresponding culture medium, the cells were digested with trypsin, and the cells were resuspended after centrifugation and counted. The cells were adjusted to an appropriate concentration for plating.
(§1) Co-incubation of the compound of the present invention and tumor cells: After the cells adhered, the culture medium was removed from the cell culture plates, and the diluted biologically active molecule (the compound of the present invention) was added to the wells of the above plate, and incubated for 72 hours.
(§2) Detection of in vitro cell activity: After the incubation was completed, 50 μL of Cell Counting-Lite™ 2.0 reagent (Vazyme) was added to each well, shaken and mixed well in the dark to perform the reaction for 10 minutes, then the detection was carried out, and a microplate reader (manufacturer: BMG, model: PHERAStar-FS) was used for reading. The background RLU was obtained using Cell Counting-Lite™ reagent in cell-free culture medium, and the solvent RLU was obtained using Cell Counting-Lite™ reagent in cell-containing culture medium. […] RLU: relative light unit.

The subject of a further experiment is HT29 colon cancer cells. Description: Inhibitory effect of compounds on HT29 cell proliferation (Cell Counting-Lite 2.0, 72 h). The following applies: Homo sapiens. As for the experimental part: (1) Cell plating: First, tumor cells HT29 were cultured in the corresponding culture medium, the cells were digested with trypsin, and the cells were resuspended after centrifugation and counted. The cells were adjusted to an appropriate concentration for plating.
as §1, §2

The next experiment relates to HCC1954 cells. Description: Inhibitory effect of compounds on proliferation of HCC1954 cells (Cell Counting-Lite 2.0, 72 h). The conditions noted are these: Homo sapiens. Here is the method:
(1) Cell plating: First, tumor cells HCC1954 were cultured in the corresponding culture medium, the cells were digested with trypsin, and the cells were resuspended after centrifugation and counted. The cells were adjusted to an appropriate concentration for plating.
as §1, §2

The subject of experiment [2] is NCI-H1975 human non-small cell lung cancer cells. Description: Inhibitory effect of compounds on proliferation of NCI-H1975 cells (Cell Counting-Lite 2.0, 72 h). The following applies: Table 10, incubated for 72 hours. As for the experimental part:
(1) Cell plating: First, tumor cells NCI-H1975 were cultured in the corresponding culture medium, the cells were digested with trypsin, and the cells were resuspended after centrifugation and counted. The cells were adjusted to an appropriate concentration for plating.
as §1, §2

Experiment [3] deals with HCC827 human non-small cell lung cancer cells. Description: Inhibitory effect of compounds on HCC827 cell proliferation (Cell Counting-Lite 2.0, 72 h). The conditions noted are these: Table 6, incubated for 72 hours, read-out: Inhibition activity of compounds on proliferation of HCC827 cells IC50. As for the experimental part: (1) Cell plating: First, tumor cells HCC827 were cultured in the corresponding culture medium, the cells were digested with trypsin, and the cells were resuspended after centrifugation and counted. The cells were adjusted to an appropriate concentration for plating.
as §1, §2

The mark [4] stands for this setting: Table 2-2, incubated for 72 hours.
Setting [5] is: HT-29, Table 4-2, incubated for 72 hours.
[6] abbreviates: Table 8-2, incubated for 72 hours, read-out: Inhibitory activity of compounds on proliferation of HCC1954 cells IC50.
The mark [7] stands for this setting: Table 2-1, incubated for 72 hours.
Where [8] appears, read: HT-29, Table 4-1, incubated for 72 hours.
[9] abbreviates: Table 8-1, incubated for 72 hours, read-out: Inhibition activity of compounds on proliferation of HCC1954 cells IC50.

On to `COc1cc2c(cc1OCCCCCOc1cc3c(cc1OC)C(=O)N1CC4(CC4)C[C@H]1CN3)NC[C@@H]1CC(c3ccc(O)cc3)=CN1C2=O` [Compound 7-3, (S)-8-((5-(((S)-2-(4-Hydroxyphenyl)-7-methoxy-5-oxo-5,10,11,11a-tetrahydro-1H-benzo[e]pyrrolo[1,2-a][1,4]diazepin-8-yl)oxy)pentyl)oxy)-7-methoxy-1,10,11,11a-tetrahydro-3H,5H-spiro[benzo[e]pyrrolo[1,2-a][1,4]diazepin-2,1′-cyclopropane]-5-one], for which the IC50 in experiment [1] (setting [4]) stood at 79.3 nM; with HT29 colon cancer cells (setting [5]), 10.2 nM; in the experiment with HCC1954 cells (setting [6]), 208 nM; in experiment [2] it was 124 nM.
Consider `COc1cc2c(cc1OCCCCCOc1cc3c(cc1OC)C(=O)N1CC4(CC4)C[C@H]1CN3)NC[C@@H]1CC(c3ccc(N)cc3)=CN1C2=O` [Compound 7-5, (S)-8-((5-(((S)-2-(4-Aminophenyl)-7-methoxy-5-oxo-5,10,11,11a-tetrahydro-1H-benzo[e]pyrrolo[1,2-a][1,4]diazepin-8-yl)oxy)pentyl)oxy)-7-methoxy-1,10,11,11-tetrahydro-3H,5H-spiro[benzo[e]pyrrolo[1,2-a][1,4]diazepin-2,1′-cyclopropane]-5-one], for which the IC50 in experiment [1] (setting [7]) amounted to 3.2 nM; in experiment [1] (setting [4]), 4.1 nM; in the experiment with HT29 colon cancer cells (setting [8]), 1.4 nM; in experiment [3], 13.1 nM; with HCC1954 cells (setting [9]) it was 25.9 nM; in experiment [2] it was 12.3 nM.
On to `COc1cc2c(cc1OCCCCCOc1cc3c(cc1OC)C(=O)N1CC4(CC4)C[C@H]1CN3)NC[C@@H]1CC3(CC3)CN1C2=O` [Compound 7-9], for which the IC50 in experiment [1] (setting [7]) is 29.7 nM; in the experiment on HT29 colon cancer cells (setting [8]), 14.9 nM; in experiment [3], 116 nM; in the experiment on HCC1954 cells (setting [9]) it was 125 nM; in experiment [2] it was 107 nM.
Regarding `COc1cc2c(cc1OCCCCCOc1cc3c(cc1OC)C(=O)N1CC(F)(F)C[C@H]1CN3)NC[C@@H]1CC(c3ccc(N)cc3)=CN1C2=O` [Compound 7-29, (S)-2-(4-aminophenyl)-8-((5-(((S)-2,2-difluoro-7-methoxy-5-oxo-2,3,5,10,11,11a-hexahydro-1H-benzo[e]pyrrolo[1,2-a][1,4]diazepin-8-yl)oxy)pentyl)oxy)-7-methoxy-1,10,11,11a-tetrahydro-5H-benzo[e]pyrrolo[1,2-a][1,4]diazepin-5-one], the IC50 came out at 117 nM in experiment [1] (setting [4]) and 154 nM in the experiment on HCC1954 cells (setting [6]).
The compound `COc1cc2c(cc1OCCCCCOc1cc3c(cc1OC)C(=O)N1CC4(CC4)C[C@H]1CN3)NC[C@@H]1C[C@@H](c3ccc(N)cc3)CN1C2=O` [Compound 7-34, (S)-8-((5-(((2S,11aS)-2-(4-aminophenyl)-7-methoxy-5-oxo-2,3,5,10,11,11a-hexahydro-1H-benzo[e]pyrrolo[1,2-a][1,4]diazepin-8-yl)oxy)pentyl)oxy)-7-methoxy-1,10,11,11a-tetrahydro-3H,5H-spiro[benzo[e]pyrrolo[1,2-a][1,4]diazepin-2,1′-cyclopropane]-5-one] returned an IC50 in experiment [1] (setting [4]) of 120 nM.
As for `COc1cc2c(cc1OCCCCCOc1cc3c(cc1OC)C(=O)N1CC4(CC4)C[C@H]1CN3)NC[C@@H]1C[C@H](c3ccc(N)cc3)CN1C2=O` [Compound 7-35], the IC50 in experiment [1] (setting [4]) came to 118 nM.
For `COc1cc2c(cc1OCCCCCOc1cc3c(cc1OC)C(=O)N1CC4(CC4)C[C@H]1CN3)NC[C@@H]1CC(c3ccoc3)=CN1C2=O` [Compound 7-36, (S)-8-((5-(((S)-2-(furan-3-yl)-7-methoxy-5-oxo-5,10,11,11a-tetrahydro-1H-benzo[e]pyrrolo[1,2-a][1,4]diazepin-8-yl)oxy)pentyl)oxy)-7-methoxy-1,10,11,11a-tetrahydro-3H,5H-spiro[benzo[e]pyrrolo[1,2-a][1,4]diazepin-2,1′-cyclopropane]-5-one], the IC50 in experiment [1] (setting [7]) stood at 15.4 nM; with HT29 colon cancer cells (setting [8]) it was 14.7 nM; in experiment [3], 126 nM; in the experiment on HCC1954 cells (setting [9]), 144 nM; in experiment [2] it was 114 nM.
For `COc1cc2c(cc1OCCCCCOc1cc3c(cc1OC)C(=O)N1CC4(CC4)C[C@H]1CN3)NC[C@@H]1CC(c3ccsc3)=CN1C2=O` [Compound 7-37, (S)-7-methoxy-8-((5-(((S)-7-methoxy-5-oxo-2-(thien-3-yl)-5,10,11,11a-tetrahydro-1H-benzo[e]pyrrolo[1,2-a][1,4]diazepin-8-yl)oxy)pentyl)oxy)-1,10,11,11a-tetrahydro-3H,5H-spiro[benzo[e]pyrrolo[1,2-a][1,4]diazepin-2,1′-cyclopropane]-5-one], the IC50 in experiment [1] (setting [7]) was 24.2 nM; in the experiment on HT29 colon cancer cells (setting [8]), 16.2 nM; in experiment [3], 124 nM; in the experiment with HCC1954 cells (setting [9]) it was 148 nM; in experiment [2], 101 nM.
With `COc1cc2c(cc1OCCCCCOc1cc3c(cc1OC)C(=O)N1CC4(CC4)C[C@H]1CN3)NC[C@@H]1CC(c3csc(CO)c3)=CN1C2=O` [Compound 7-38, (S)-8-((5-(((S)-2-(5-(hydroxymethyl)thien-3-yl)-7-methoxy-5-oxo-5,10,11,11a-tetrahydro-1H-benzo[e]pyrrolo[1,2-a][1,4]diazepin-8-yl)oxy)pentyl)oxy)-7-methoxy-1,10,11,11a-tetrahydro-3H,5H-spiro[benzo[e]pyrrolo[1,2-a][1,4]diazepin-2,1′-cyclopropane]-5-one], the IC50 in experiment [1] (setting [7]) is 49.7 nM; in the experiment with HT29 colon cancer cells (setting [8]), 15.4 nM; in experiment [3], 139 nM; with HCC1954 cells (setting [9]), 695 nM; in experiment [2], 105 nM.
`COc1ccc(C2=CN3C(=O)c4cc(OC)c(OCCCCCOc5cc6c(cc5OC)C(=O)N5CC(F)(F)C[C@H]5CN6)cc4NC[C@@H]3C2)cc1` [Compound 7-39, (S)-8-((5-(((S)-2,2-difluoro-7-methoxy-5-oxo-2,3,5, 10,11,11a-hexahydro-1H-benzo[e]pyrrolo[1,2-a][1,4]diazepin-8-yl)oxy)pentyl)oxy)-7-methoxy-2-(4-methoxyphenyl)-1,10,11,11a-tetrahydro-5H-benzo[e]pyrrolo[1,2-a][1,4]diazepin-5-one]: the IC50 in experiment [1] (setting [4]) was 11 nM; with HT29 colon cancer cells (setting [5]), 9.7 nM; in the experiment on HCC1954 cells (setting [6]) it was 140 nM; in experiment [2] it was 12.3 nM.
Regarding `COc1ccc(C2=CN3C(=O)c4cc(OC)c(OCCCCCOc5cc6c(cc5OC)C(=O)N5C[C@H](O)C[C@H]5CN6)cc4NC[C@@H]3C2)cc1` [Compound 7-40, (S)-8-((5-(((2R,11aS)-2-hydroxy-7-methoxy-5-oxo-2,3,5,10,11,11a-hexahydro-1H-benzo[e]pyrrolo[1,2-a][1,4]diazepin-8-yl)oxy)pentyl)oxy)-7-methoxy-2-(4-methoxyphenyl)-1,10,11,11a-tetrahydro-5H-benzo[e]pyrrolo[1,2-a][1,4]diazepin-5-one], the IC50 in experiment [1] (setting [4]) is 93.6 nM; with HCC1954 cells (setting [6]) it was 128 nM.
Turning to `C=C1C[C@H]2CNc3cc(OCCCCCOc4cc5c(cc4OC)C(=O)N4C=C(c6ccc(OC)cc6)C[C@H]4CN5)c(OC)cc3C(=O)N2C1` [Compound 7-41, (S)-7-methoxy-8-((5-(((S)-7-methoxy-2-methylene-5-oxo-2,3,5,10,11,11a-hexahydro-1H-benzo[e]pyrrolo[1,2-a][1,4]diazepin-8-yl)oxy)pentyl)oxy)-2-(4-methoxyphenyl)-1,10,11,11a-tetrahydro-5H-benzo[e]pyrrolo[1,2-a][1,4]diazepin-5-one], the IC50 was found to be 12.7 nM in experiment [1] (setting [7]); 9.8 nM in the experiment on HT29 colon cancer cells (setting [8]); 225 nM in experiment [3]; 259 nM with HCC1954 cells (setting [9]); 69.9 nM in experiment [2].
With `COc1ccc(C2=CN3C(=O)c4cc(OC)c(OCCCCCOc5cc6c(cc5OC)C(=O)N5[C@H](CN6)C[C@H]6C[C@H]65)cc4NC(=O)[C@@H]3C2)cc1` [Compound 7-42], the IC50 in experiment [1] (setting [4]) was determined as 100 nM; with HT29 colon cancer cells (setting [5]), 99.7 nM.
For the compound `COc1ccc(C2=CN3C(=O)c4cc(OC)c(OCCCCCOc5cc6c(cc5OC)C(=O)N5[C@H](CN6)C[C@H]6C[C@H]65)cc4NC[C@@H]3C2)cc1` [Compound 7-43, (1aR,9aS,10aR)-5-methoxy-6-((5-(((S)-7-methoxy-2-(4-methoxyphenyl)-5-oxo-5,10,11,11a-tetrahydro-1H-benzo[e]pyrrolo[1,2-a][1,4]diazepin-8-yl)oxy)pentyl)oxy)-1a,8,9,9a,10,10a-hexahydrobenzo[e]cyclopropo[4,5]pyrrolo[1,2-a][1,4]diazepin-3(1H)-one], the IC50 in experiment [1] (setting [4]) is 10.1 nM; with HT29 colon cancer cells (setting [5]) it was 10.2 nM.
